Data taken from ChEMBL document CHEMBL6153172, “MALT1 Inhibitors and Degraders: Strategies for NF-κB-Driven Malignancies” (J Med Chem, 2025).
Where a SMILES comes first, the peptide text is derived from it. The star is where a group is joined. Cbz = O=C(OCc1ccccc1)*; CH2F = FC*

Legend:
[1] = biological target: T1, Mucosa-associated lymphoid tissue lymphoma translocation protein 1 (Homo sapiens, UniProt Q9UDY8); assay: biochemical
T1 sequence (Q9UDY8 whole entry): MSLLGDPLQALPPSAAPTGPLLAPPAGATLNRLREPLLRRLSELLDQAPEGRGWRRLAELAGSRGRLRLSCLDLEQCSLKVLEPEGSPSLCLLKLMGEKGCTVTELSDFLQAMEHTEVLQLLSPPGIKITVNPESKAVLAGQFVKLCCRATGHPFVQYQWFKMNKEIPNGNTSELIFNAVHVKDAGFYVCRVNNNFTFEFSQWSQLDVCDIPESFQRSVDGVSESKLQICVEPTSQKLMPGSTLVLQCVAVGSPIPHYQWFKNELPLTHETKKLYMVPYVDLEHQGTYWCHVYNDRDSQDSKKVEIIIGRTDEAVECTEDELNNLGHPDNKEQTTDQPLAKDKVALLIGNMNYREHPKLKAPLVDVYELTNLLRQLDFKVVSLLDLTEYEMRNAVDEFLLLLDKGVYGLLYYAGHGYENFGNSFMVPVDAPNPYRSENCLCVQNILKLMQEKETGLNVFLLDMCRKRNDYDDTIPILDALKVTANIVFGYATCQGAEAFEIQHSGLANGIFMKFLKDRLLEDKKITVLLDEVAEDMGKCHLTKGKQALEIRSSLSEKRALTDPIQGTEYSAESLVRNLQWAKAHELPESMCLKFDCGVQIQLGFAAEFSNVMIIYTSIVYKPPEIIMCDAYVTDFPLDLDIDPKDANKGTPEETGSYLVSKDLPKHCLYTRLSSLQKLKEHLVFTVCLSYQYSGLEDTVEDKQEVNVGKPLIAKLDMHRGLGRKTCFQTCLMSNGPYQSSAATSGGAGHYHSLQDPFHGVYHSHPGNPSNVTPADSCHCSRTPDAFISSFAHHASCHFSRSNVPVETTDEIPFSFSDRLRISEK
Description: Inhibition of C-terminal human full length wild type MALT1 (329 to 824 residues) extracted from baculovirus infected Sf21 cells using Ac-Leu-Arg-Ser-Arg-Rh110-dPro incubated for 60 mins by fluorescence based analysis

OCI-Ly3 [2] = assay: Growth inhibition of human OCI-Ly3 cells
[3] = biological target: T1, Mucosa-associated lymphoid tissue lymphoma translocation protein 1
Description: Binding affinity to full length C-terminal His-tagged wild-type MALT1 catalytic domain (329 to 566 residues) (unknown origin) extracted from Escherichia coli BL21 (DE3) assessed as inhibition constant

[4] = biological target: T1, Mucosa-associated lymphoid tissue lymphoma translocation protein 1; assay: biochemical; remark: listed apart in the source
Description: Inhibition of human full length His-tagged MALT1 (1 to 824 residues) infected in baculovirus infected Insect cells using Ac-LRSR-AMC as substrate incubated for 1 hr by HTRF assay

OCI-Ly3 [5] = assay: Antiproliferative activity against human OCI-Ly3 cells; format: functional, cell-based
[6] = biological target: T1, Mucosa-associated lymphoid tissue lymphoma translocation protein 1; assay: Inhibition of GST-tagged human recombinant MALT1 extracted from Escherichia coli using Ac-LRSR-AMC as substrate by fluorescence based analysis
[7] = biological target: T1, Mucosa-associated lymphoid tissue lymphoma translocation protein 1; assay: biochemical; remark: listed apart in the source
Description: Inhibition of N-terminal recombinant human MALT1 (329 to 824 residues) extracted from baculovirus infected Sf21 cells using c-LRSR~Rhodamine110-DP as substrate by fluorescence based assay

[8] = biological target: T1, Mucosa-associated lymphoid tissue lymphoma translocation protein 1; assay: Inhibition of N-terminal human recombinant MALT1 expressed in Jurkat cells assessed as suppression of IL-2 secretion
[9] = biological target: T1, Mucosa-associated lymphoid tissue lymphoma translocation protein 1; remark: listed apart in the source
Description: Inhibition of MALT1 (unknown origin)

[10] = biological target: T1, Mucosa-associated lymphoid tissue lymphoma translocation protein 1; assay: Inhibition MALT1 (unknown origin) using Ac-LRSR-AMC as substrate by fluorescence based analysis

`CO[C@H](C)c1c(NC(=O)Nc2cnc(C(=O)N3CCCC3)c(Cl)c2)cnc2cc(Cl)nn12` showed an IC50 [1] of 14 nM.

In the case of `CC(C)[C@H](NC(=O)OCc1ccccc1)C(=O)N[C@@H](CCCNC(=N)N)C(=O)N1CCC[C@H]1C(=O)N[C@@H](CCCNC(=N)N)C(=O)CF`, the GI50 (OCI-Ly3 [2]) is reported as 2500 nM.

In the case of `CC(C)[C@H](NC(=O)OCc1ccccc1)C(=O)N1CCC[C@H]1C(=O)N[C@@H](CCCNC(=N)N)C(=O)CF` (Cbz-Val-Pro-Arg-CH2F), the Ki [3] is reported as 30 nM and the GI50 (OCI-Ly3 [2]) is reported as 5620 nM.

Compound `O=C1NC2C=CC(n3ncc(C(=O)Nc4cnc(-n5nccn5)c(Cl)c4)c3C(F)(F)F)=C3C=CC=C1C32` (stereo not drawn) has an IC50 [4] of 15 nM.

With `CC1(C)CCC2=C(O1)c1ccccc1C(=O)C2=O` [LAPACHONE] the IC50 (OCI-Ly3 [5]) was 4000 nM.

`CO[C@@H](C)c1c(NC(=O)Nc2cnc3c(c2)COc2ccnn2-3)cnc2cc(Cl)nn12` was tested, and the IC50 [4] was 34 nM.

For `CN(C)CCCN1c2ccccc2Sc2ccccc21` [PROMAZINE], the IC50 [6] was 3790 nM.

With `CCc1ccc2cnn(C)c2c1NS(=O)(=O)c1ccc(N2C[C@](O)(C(F)(F)F)CC2=O)nc1` the IC50 [7] was 16 nM and the IC50 [8] was 53 nM.

In the case of `CO[C@@H](c1c(NC(=O)Nc2cnc(-n3nccn3)c(C(F)(F)F)c2)cnc(C)c1C#N)C1CC1`, the IC50 [9] is reported as 20 nM.

`CC1(C(F)(F)F)CN(C(=O)Nc2ccc3nonc3c2)c2cnc3cc(Cl)nn3c21` (stereo not drawn) gave an IC50 [4] of 34 nM.

`O=C(Nc1cncc(C(F)(F)F)c1)Nc1cnn2cc(Cl)nc2c1C1CC1` was tested, and the IC50 [9] was < 100 nM.

`CC(C)[C@H](NC(=O)c1ccc(Br)cc1)C(=O)N1CCC[C@H]1C(=O)N[C@@H](CCCNC(=N)N)C(=O)CF` gave a GI50 (OCI-Ly3 [2]) of 87 nM.

`CO[C@@H](C)c1c(NC(=O)Nc2cncc(C(F)(F)F)c2)cnc2cc(Cl)nn12` showed an IC50 [10] of 4 nM.

`CC(C)C[C@H](NC(=O)OCc1ccccc1)C(=O)N[C@H](C(=O)N1CCC[C@H]1C(=O)N[C@@H](CCCNC(=N)N)C(=O)CF)C(C)C` (Cbz-LVPR-CH2F) was tested, and the GI50 (OCI-Ly3 [2]) was 768 nM.

In the case of `C[C@]1(C(F)(F)F)CN(C(=O)Nc2cnc(-n3nccn3)c(Cl)c2)c2cnc3cc(Cl)nn3c21`, the IC50 [4] is reported as < 10 nM.

In the case of `COC(C)c1c(NC(=O)Nc2cnc(-n3nccn3)c(C(F)(F)F)c2)cnc2sc(C)nc12` (stereo not drawn), the IC50 [9] is reported as < 50 nM.
